Results reported in patent US11608380B2, “Anti-EGFRvIII antibodies and uses thereof” (REGENERON PHARMACEUTICALS, INC., priority 2014, dated 2023).

How the values were obtained:
Test in all cases: Cell viability (CCK8) cell kill assay
MMT = assay type: cell-based
Experimental: (§1) Next, the ability of anti-human EGFRvIII antibodies conjugated to the maytansine toxin DM1 to reduce cell viability was determined using in vitro cell based assays. Cells were seeded in PDL-coated 96 well plates at 250-2000 cells per well in complete growth media and allowed to grow overnight. For cell viability curves, ADCs or free drug (DM1-SMe) was added to cells at final concentrations ranging from 500 nM to 5 μM and incubated for 3 days. Cells were incubated with CCK8 (Dojindo) for the final 1-3 h and the absorbance at 450 nm (OD450) was determined on the Flexstation3 (Molecular Devices). Background OD450 levels from digitonin (40 nM) treated cells was subtracted from all wells and viability is expressed as a percentage of the untreated controls. IC50 values were determined from a four-parameter logistic equation over a 10-point response curve (Graph Pad Prism). IC50 values are in nM and are normalized for the particular drug/antibody ratio (DAR).

U251 = assay type: cell-based; conditions: Table 18A
Experimental: as §1

HEK293 = assay type: cell-based
Experimental: as §1

HEK293/hEGFRwt = assay type: cell-based, human; conditions: Table 18A
Experimental: (§2) All cells were generated via lipofectamine 2000 based methodologies and were cultured in complete growth media in the presence of G418.
as §1, with “Cells were incubated with CCK8 (Dojindo) for the final 1-3 h and the absorbance at 450 nm (OD450) was determined on the Flexstation3 (Molecular Devices).” left out

HEK293/hEGFRvIII = assay type: cell-based, human
Experimental: as §2
as §1, with “Cells were incubated with CCK8 (Dojindo) for the final 1-3 h and the absorbance at 450 nm (OD450) was determined on the Flexstation3 (Molecular Devices).” left out

MMT/hEGFRvIII = assay type: cell-based, human
Experimental: as §2
as §1, with “Cells were incubated with CCK8 (Dojindo) for the final 1-3 h and the absorbance at 450 nm (OD450) was determined on the Flexstation3 (Molecular Devices).” left out

U251/hEGFRvIII = assay type: cell-based, human; conditions: Table 18B
Experimental: as §2
as §1, with “Cells were incubated with CCK8 (Dojindo) for the final 1-3 h and the absorbance at 450 nm (OD450) was determined on the Flexstation3 (Molecular Devices).” left out

[1] = Table 20, MMT, single ADC or 1:1 pairwise combination
[2] = Table 20, HEK293, single ADC or 1:1 pairwise combination
[3] = Table 19, HEK293/hEGFRvIII (high)
[4] = Table 20, HEK293/hEGFRvIII, single ADC or 1:1 pairwise combination
[5] = Table 20, MMT/hEGFRvIII, single ADC or 1:1 pairwise combination

Question: DM1-SMe was tested. Which “% Kill” value (MMT; Table 18B, MMT) did it give?
Answer: The value was 96%.

Question: What about the IC50 (MMT; Table 18B, MMT, 3 days, normalized for DAR) of the same substance?
Answer: The IC50 was 0.6 nM.

Question: What about the “% Kill” value (MMT; Table 19, MMT) of the same substance?
Answer: Its value is 100%.

Question: And the IC50 (MMT; Table 19, MMT)?
Answer: The IC50 was 0.15 nM.

Question: And the “% Kill” value (MMT; [1])?
Answer: Its value is 100%.

Question: What about the IC50 (MMT; [1]) of the same substance?
Answer: Its IC50 is 0.19 nM.

Question: And the “% Kill” value (U251; U251)?
Answer: Its value is 81%.

Question: And the IC50 (U251; U251, 3 days, normalized for DAR)?
Answer: Its IC50 is 1.8 nM.

Question: What about the “% Kill” value (HEK293; Table 18A, HEK293) of the same substance?
Answer: Its value is 97%.

Question: What about the IC50 (HEK293; Table 18A, HEK293, 3 days, normalized for DAR) of the same substance?
Answer: Its IC50 is 0.31 nM.

Question: And the “% Kill” value (HEK293; Table 19, HEK293)?
Answer: The value was 98%.

Question: And the IC50 (HEK293; Table 19, HEK293)?
Answer: The IC50 was 0.19 nM.

Question: And the “% Kill” value (HEK293; [2])?
Answer: Its value is 96%.

Question: And the IC50 (HEK293; [2])?
Answer: Its IC50 is 0.21 nM.

Question: And the “% Kill” value (HEK293/hEGFRwt)?
Answer: The value was 95%.

Question: What about the IC50 (HEK293/hEGFRwt; 3 days, normalized for DAR) of the same substance?
Answer: The IC50 was 0.57 nM.

Question: What about the “% Kill” value (HEK293/hEGFRvIII; Table 18A, HEK293/hEGFRvIII) of the same substance?
Answer: Its value is 99%.

Question: What about the IC50 (HEK293/hEGFRvIII; Table 18A, HEK293/hEGFRvIII, 3 days, normalized for DAR) of the same substance?
Answer: The IC50 was 0.6 nM.

Question: And the “% Kill” value (HEK293/hEGFRvIII; [3])?
Answer: Its value is 99%.

Question: And the IC50 (HEK293/hEGFRvIII; [3])?
Answer: Its IC50 is 0.25 nM.

Question: And the “% Kill” value (HEK293/hEGFRvIII; [4])?
Answer: Its value is 97%.

Question: And the IC50 (HEK293/hEGFRvIII; [4])?
Answer: The IC50 was 0.28 nM.

Question: What about the “% Kill” value (MMT/hEGFRvIII; Table 18B, MMT/hEGFRvIII) of the same substance?
Answer: The value was 100%.

Question: And the IC50 (MMT/hEGFRvIII; Table 18B, MMT/hEGFRvIII, 3 days, normalized for DAR)?
Answer: Its IC50 is 0.7 nM.

Question: And the “% Kill” value (MMT/hEGFRvIII; Table 19, MMT/hEGFRvIII (high))?
Answer: Its value is 99%.

Question: What about the IC50 (MMT/hEGFRvIII; Table 19, MMT/hEGFRvIII (high)) of the same substance?
Answer: The IC50 was 0.18 nM.

Question: What about the “% Kill” value (MMT/hEGFRvIII; [5]) of the same substance?
Answer: The value was 100%.

Question: What about the IC50 (MMT/hEGFRvIII; [5]) of the same substance?
Answer: The IC50 was 0.19 nM.

Question: What about the “% Kill” value (U251/hEGFRvIII) of the same substance?
Answer: The value was 83%.

Question: What about the IC50 (U251/hEGFRvIII; 3 days, normalized for DAR) of the same substance?
Answer: The IC50 was 1.2 nM.
